These are literature values, as cited in patent US20060154981A1, “Method of reducing intraocular pressure and treating glaucoma” (Alcon, Inc., priority 2005, published 2006).

SMILES strings stand for the structures.

The subject of one series is IOP. As to conditions: rabbits.
The test system of the next series is neutrophils. To be noted: compared with lipoxin A4.

For `CCCCC[C@H](O)/C=C/C=C\C=C\C=C\[C@@H](O)[C@@H](O)CCCC(=O)OC` [methyl ester of lipoxin A4], the IOP lowering entry with IOP was “reported to lower IOP in rabbits”.

As to `CCCCC[C@H](O)[C@H](O)CO` [compound 2], the “Inhibition of LTB4-induced chemotaxis of neutrophils” value in the series with neutrophils was “inhibit LTB4-induced chemotaxis of neutrophils as potently as lipoxin A4”.
